Assay results from patent publication US20170151299A1, “EXTRACTS OF SANTOLINA CHAMAECYPARISSUS” (priority 2014, published 2017).
Converted amounts (≈) assume the structure as drawn. Like-named read-outs stand apart in the source and are kept apart here.

Legend:
Staphylococcus aureus = test: 96-well microtiter plate growth inhibition assay; format: cell-based; details: for inhibition at 200000 µg/mL (stock): 200 mg/mL sample at 2% in well (positive standard 0.4%)
Procedure: (§1) Antimicrobial activity of the crude extracts was determined using a 96-well microtiter plate assay based on growth inhibition. The assay was performed on […] different microbial strains, chosen according to the European Pharmacopoeia (ATCC references): Staphylococcus aureus ([…]), Escherichia coli (gram-negative bacteria), Pseudomonas aeruginosa ([…]), Propionibacterium acnes (anaerobic gram-positive bacteria), Aspergillus niger (fungus) and Candida albicans (yeast).
(§2) Samples for antimicrobial assay were prepared as follows: crude extracts were diluted at 200 mg/mL in a mixture of appropriate solvents, e.g. ethanol and water (60:40 v/v) or pure dimethylsulfoxide. After solubilization, the solutions were filtrated on 0.45 μm syringe filters.
(§3) The assay was performed for each strain according as follows: samples (at 200 mg/mL) were first diluted to 4% in water, then to 2% and 0.2% in wells. Final concentrations were also 0.4 and 0.04% of crude extracts in wells. Each concentration was assessed in replicate with one supplementary control well containing no microbial strain. For the assay at 2%, samples were mixed up in the wells with growth medium (95 μL) and microbial suspension (representing an absorbance of 0.6 for C. albicans, S. aureus and P. aeruginosa and 40 spores/μL for A. niger). For the assay at 0.2%, samples were first diluted to 0.2% with water in the wells. Negative controls constituted of the solvent mixture used to prepare the sample solutions, and positive controls with a synthetic preservative (methyl-paraben and/or phenoxyethanol, positive standard) were also prepared. Results were also compared with those obtained using a commercial natural preservative (commercial preservative). The 96-well plates were incubated at 25° C.
(§4) The absorbance was read for each plate at 620 nm 24, 48 and 72 hours after the beginning of the incubation to evaluate the growth of each microorganism in presence of crude extracts.
(§5) The results were expressed as a percentage of growth inhibition by the samples for each microorganism.

Candida albicans = test: 96-well microtiter plate growth inhibition assay; format: cell-based; details: for inhibition: 200 mg/mL sample at 2% in well (positive standard 0.4%)
Procedure: as §1, §2, §3, §4, §5

Pseudomonas aeruginosa = test: 96-well microtiter plate growth inhibition assay; format: cell-based; details: for inhibition: 200 mg/mL sample at 2% in well (positive standard 0.4%)
Procedure: as §1, §2, §3, §4, §5

Aspergillus niger = test: 96-well microtiter plate growth inhibition assay; format: cell-based; details: for inhibition at 200000 µg/mL (stock): 200 mg/mL sample at 2% in well (positive standard 0.4%)
Procedure: as §1, §2, §3, §4, §5

Propionibacterium acnes = test: Minimum inhibitory concentration (MIC); format: cell-based; details: Cutibacterium acnes; Propionibacterium acnes (anaerobic); read-out: MIC (mg/mL) P. acnes
Procedure: In a second step for the optimized extract of S. chamaecyparissus, the minimum inhibitory concentration (MIC) and the minimum bactericidal concentration (MBC) were also measured including E. coli and P. acnes. […] The MBC is the lowest concentration of antibacterial agent required to kill a particular bacterium, that is to say to reduce the viability of the initial bacterial inoculum by >99.9%. The dilutions were run in triplicate for the MIC and MBC test. At the end of the incubation, the tubes were read for the growth inhibition and then the MBC was determined by sampling all the macroscopically clear tubes and the first turbid tube in the series.
The results were expressed in mg/mL of extract.
The optimized extract was then assessed for its antimicrobial activity and more particularly in order to determine the minimum inhibitory concentration for Propionibacterium acnes (gram-positive bacteria). Methyl paraben and phenoxyethanol, as universal antimicrobial agents, were used as positive control. Due to the a higher active substance (I) content, the impact on the antimicrobial activity and more particularly on an anaerobic bacteria was evaluated.

[1] = format: physicochemical
Procedure: The pure compound appeared to be unstable once isolated, and particularly in aqueous and acid conditions. Since antimicrobial assays were performed in water, its antimicrobial activity could not be evaluated as for crude extracts or plant fractions. Thus, the inventors tried to establish a relationship between antimicrobial activity and active substance content in crude extracts.

[2] = 24 h, read-out: Growth inhibition (%) 24 h, 2%
[3] = 48 h, read-out: Growth inhibition (%) 48 h, 2%
[4] = medium inhibition at 2%, Table 2
[5] = 72 h, read-out: Growth inhibition (%) 72 h, 2%

| MIC (Propionibacterium acnes) [mg/mL] | stability once isolated [1] | SMILES | inhibition at 200000 µg/mL (stock) (Staphylococcus aureus; [2]) [%] | inhibition at 200000 µg/mL (stock) (Staphylococcus aureus; [3]) [%] | Review (Staphylococcus aureus; [4]) | inhibition (Candida albicans; [2]) [%] | inhibition (Candida albicans; [3]) [%] | Review (Candida albicans; [4]) | inhibition (Pseudomonas aeruginosa; [3]) [%] | inhibition (Pseudomonas aeruginosa; [5]) [%] | Review (Pseudomonas aeruginosa; [4]) | inhibition at 200000 µg/mL (stock) (Aspergillus niger; [3]) [%] | inhibition at 200000 µg/mL (stock) (Aspergillus niger; [5]) [%] | Review (Aspergillus niger; [4]) |
| --- | --- | --- | --- | --- | --- | --- | --- | --- | --- | --- | --- | --- | --- | --- |
| 2.53 (≈ 16.6 mM) | – | COC(=O)c1ccc(O)cc1 [Positive standard, Methylparaben] | 80 | 93 | ++ (medium inhibition comprised between 70% and 90%) | 99 | 100 | +++ (medium inhibition greater or equal to 90%) | 75 | 81 | ++ (medium inhibition comprised between 70% and 90%) | 100 | 100 | +++ (medium inhibition greater or equal to 90%) |
| – | unstable | CC#CC#C/C=C1/C=CC2(OC=CC2OC(C)=O)O1 (centres unmarked) [pure compound, 1,6-dioxaspiro[4,4]nona-2,8-dien-4-ol,7-(2,4-hexadiyn-1-ylidene)-,4-acetate] | – | – | – | – | – | – | – | – | – | – | – | – |
